What was measured:
[1] = test system: MMP14; experiment: Assay of MMP14 activity (FRET peptide) in HT1080 cells treated with Naphthofluorescein; format: cell-based, human; conditions: n=3, untreated cells 473.7±20.93
Method: Detection of Cy 3.5 signals of the MMP14 FRET peptide was performed using the FLUOstar OPTIMA BMG LABTECH 96 microplate fluorescence reader standardized for optic settings of excitation 544 nm and emission 590 nm, temperature settings at 37° C., with readings taken every 10 minutes over a 120 minute duration and double orbital shaking at a width of 4 mm 1 second prior to each cycle. All confocal live cell studies were performed using the Nikon Air inverted microscope (Tokyo, Japan) with live cell imaging chamber (designed by Monash Micro imaging). Tissue sections were obtained by cryo-sectioning frozen tissue using the Leica CM1950 cryostat (Leica Microsystems, Germany).
A peptide sequence that is preferentially cleaved by MMP14 was used to create a FRET probe with N terminal Cy3.5 and C terminal BHQ (Black Hole Quencher): Cy3.5 SGRIGFLRTACBHQ2 (SEQ ID NO:13). The presence of MMP14 activity cleaves this peptide and separates the Cy3.5 from BHQ. […] The cells were centrifuged at 4000 rcf for 5 minutes, cell pellet was resuspended in PBS containing calcium and magnesium and counted using a haemocytometer. […] The 96 well microplate was incubated at 37° C. inside the FluorSTAR Optima fluorescent microplate reader for 2 hours while Cy 3.5 signal readings in the (Ex544, Em590) channel were taken every 10 minutes. […] The readings were plotted as bar charts in Prism software. […]

[2] = test system: unstable plaques; experiment: In vivo treatment of tandem stenosis mice, plaque collagen quantification (Picrosirius Red); set-up: species or system mouse; conditions: tandem stenosis ApoE knock out mice, 2 tail vein injections 2 weeks apart, killed 2 weeks after second dose, PBS 14.40±4.522
Method: As described elsewhere herein, at 12 weeks of age and 6 weeks after commencement of high fat diet, ApoE−/− mice (C57BL/6J background) were anaesthetized by intraperitoneal injection of a mixture of ketamine (100 mg/kg) and xylazine (10 mg/kg). An incision was made in the neck and the right common carotid artery exposed by dissecting away circumferential connective tissue. A tandem stenosis with 150 μm outer diameter was introduced with the distal stenosis placed 1 mm from the carotid artery bifurcation and the proximal stenosis 3 mm from the distal stenosis. A 6-0 blue braided polyester fibre suture was tied around the carotid artery and a 150 μm needle to achieve the stenosis diameter of 150 μm and the needle was subsequently removed after the suture was secured. The incision wound was sutured close and the mice resumed their high fat diet. […]
Collagen quantification of the Picrosirius Red slides were performed using Image J software (National Institute of Health USA). […] For each section, the quantity of plaque collagen is expressed as the percentage of collagen within the plaque: […]
All quantitative data was analysed by PRISM 6 (GraphPad Software Inc.) and reported as mean +/− one standard deviation. […] Unpaired t test with Welch's correction was also used to analyse the collagen quantification data for the mouse in vivo treatment experiments. […]

For O=C1OC2(c3ccccc31)c1ccc3cc(O)ccc3c1Oc1c2ccc2cc(O)ccc12 [Naphthofluorescein], the “Cy3.5 increase (MMP14 FRET peptide)” value ([1]; HT1080 cells treated with 20 μM unaltered free Naphthofluorescein for 1 week, time zero to 120 minutes) was 125.0±17.04, the “Cy3.5 increase (MMP14 FRET peptide), pH 5 rendered drug” value ([1]; HT1080 cells, Naphthofluorescein pre-treated in HCl solution at pH 5 for 30 minutes then neutralised with NaOH) was 126.7±2.728 and the “collagen percentage of the plaque area” value [2] was 18.87+5.308 percentage of the plaque area.
